Test results published in the kinase profiling compilation of Christmann-Franck et al. (2016).
Each block holds one compound with its values, some of them ahead of it.

Assays:
Assay in all cases: KINOMEscan competition binding
Conditions in all cases: compound 10.0 µM
MAP4K2 (human) = MAP4K2 (human) (UniProt Q12851)
MAPK12 (human) = MAPK12 (human) (UniProt P53778)
PIP4K2B (human) = PIP4K2B (human) (UniProt P78356)
IKBKE (human) = IKBKE (human) (UniProt Q14164)
EPHA1 (human) = EPHA1 (human) (UniProt P21709)
TSSK1B (human) = TSSK1B (human) (UniProt Q9BXA7)
[1] = test system: PIK3CA (human), P42336 [C420R]
HIPK3 (human) = HIPK3 (human) (UniProt Q9H422)
PIM2 (human) = PIM2 (human) (UniProt Q9P1W9)
PIK3CB (human) = PIK3CB (human) (UniProt P42338)
[2] = test system: PIK3CA (human), P42336 [E545K]
SBK1 (human) = SBK1 (human) (UniProt Q52WX2)
DCLK2 (human) = DCLK2 (human) (UniProt Q8N568)
MAP3K12 (human) = MAP3K12 (human) (UniProt Q12852)
LYN (human) = LYN (human) (UniProt P07948)
STK39 (human) = STK39 (human) (UniProt Q9UEW8)
CAMK4 (human) = CAMK4 (human) (UniProt Q16566)
PAK1 (human) = PAK1 (human) (UniProt Q13153)
DYRK2 (human) = DYRK2 (human) (UniProt Q92630)
PRKCQ (human) = PRKCQ (human) (UniProt Q04759)
TNNI3K (human) = TNNI3K (human) (UniProt Q59H18)
[3] = test system: KIT (human), P10721 [L576P]
CSNK1G3 (human) = CSNK1G3 (human) (UniProt Q9Y6M4)
MAPK7 (human) = MAPK7 (human) (UniProt Q13164)
BMPR1B (human) = BMPR1B (human) (UniProt O00238)
FGFR4 (human) = FGFR4 (human) (UniProt P22455)
AURKC (human) = AURKC (human) (UniProt Q9UQB9)
RIOK3 (human) = RIOK3 (human) (UniProt O14730)
[4] = test system: BRAF (human), P15056 [V600E]
[5] = test system: FLT3 (human), P36888 [ITD]
STK25 (human) = STK25 (human) (UniProt O00506)
CLK1 (human) = CLK1 (human) (UniProt P49759)
BRSK1 (human) = BRSK1 (human) (UniProt Q8TDC3)
PDGFRA (human) = PDGFRA (human) (UniProt P16234)
SIK2 (human) = SIK2 (human) (UniProt Q9H0K1)
EPHA4 (human) = EPHA4 (human) (UniProt P54764)
CIT (human) = CIT (human) (UniProt O14578)
PRKD3 (human) = PRKD3 (human) (UniProt O94806)
[6] = test system: KIT (human), P10721 [V559D/T670I]
MAPK3 (human) = MAPK3 (human) (UniProt P27361)
TESK1 (human) = TESK1 (human) (UniProt Q15569)
SRC (human) = SRC (human) (UniProt P12931)

LYN (human), sequence (P07948 whole entry, looked up): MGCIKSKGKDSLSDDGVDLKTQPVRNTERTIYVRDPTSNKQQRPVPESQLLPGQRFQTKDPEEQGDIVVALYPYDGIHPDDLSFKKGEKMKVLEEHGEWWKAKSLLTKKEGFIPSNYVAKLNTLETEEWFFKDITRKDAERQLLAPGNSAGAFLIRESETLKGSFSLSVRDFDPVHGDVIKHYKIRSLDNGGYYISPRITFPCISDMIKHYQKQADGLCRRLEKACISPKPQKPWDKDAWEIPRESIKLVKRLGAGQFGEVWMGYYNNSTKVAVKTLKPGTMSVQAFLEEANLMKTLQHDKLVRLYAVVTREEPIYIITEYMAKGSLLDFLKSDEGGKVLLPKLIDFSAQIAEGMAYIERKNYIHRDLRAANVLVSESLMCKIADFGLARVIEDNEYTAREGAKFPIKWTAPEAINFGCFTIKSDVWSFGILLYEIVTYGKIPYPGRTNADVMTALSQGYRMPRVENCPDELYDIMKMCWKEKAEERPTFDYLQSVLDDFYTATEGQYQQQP
CLK1 (human), sequence (P49759 whole entry, looked up): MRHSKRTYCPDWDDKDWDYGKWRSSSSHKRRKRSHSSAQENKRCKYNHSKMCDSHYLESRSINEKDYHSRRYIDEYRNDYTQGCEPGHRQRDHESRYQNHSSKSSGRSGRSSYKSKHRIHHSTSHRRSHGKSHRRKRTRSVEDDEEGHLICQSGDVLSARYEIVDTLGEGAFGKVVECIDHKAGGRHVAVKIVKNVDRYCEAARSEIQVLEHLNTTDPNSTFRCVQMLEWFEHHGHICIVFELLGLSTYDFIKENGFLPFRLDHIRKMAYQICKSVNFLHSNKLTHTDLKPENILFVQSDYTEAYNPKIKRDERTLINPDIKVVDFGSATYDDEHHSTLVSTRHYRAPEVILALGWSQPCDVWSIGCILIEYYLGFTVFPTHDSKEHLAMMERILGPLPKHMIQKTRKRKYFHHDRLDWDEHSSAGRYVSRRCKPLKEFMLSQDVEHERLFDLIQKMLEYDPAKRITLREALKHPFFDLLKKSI
AURKC (human), sequence (Q9UQB9 whole entry, looked up): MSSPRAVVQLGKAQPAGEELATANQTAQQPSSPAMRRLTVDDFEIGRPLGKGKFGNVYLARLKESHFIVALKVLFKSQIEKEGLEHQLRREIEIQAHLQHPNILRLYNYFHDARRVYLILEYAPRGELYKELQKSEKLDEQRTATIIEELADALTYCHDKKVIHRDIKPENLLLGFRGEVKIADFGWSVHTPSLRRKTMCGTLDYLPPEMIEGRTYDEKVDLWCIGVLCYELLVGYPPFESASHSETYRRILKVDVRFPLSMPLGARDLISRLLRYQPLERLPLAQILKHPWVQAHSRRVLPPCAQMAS
MAPK3 (human), sequence (P27361 whole entry, looked up): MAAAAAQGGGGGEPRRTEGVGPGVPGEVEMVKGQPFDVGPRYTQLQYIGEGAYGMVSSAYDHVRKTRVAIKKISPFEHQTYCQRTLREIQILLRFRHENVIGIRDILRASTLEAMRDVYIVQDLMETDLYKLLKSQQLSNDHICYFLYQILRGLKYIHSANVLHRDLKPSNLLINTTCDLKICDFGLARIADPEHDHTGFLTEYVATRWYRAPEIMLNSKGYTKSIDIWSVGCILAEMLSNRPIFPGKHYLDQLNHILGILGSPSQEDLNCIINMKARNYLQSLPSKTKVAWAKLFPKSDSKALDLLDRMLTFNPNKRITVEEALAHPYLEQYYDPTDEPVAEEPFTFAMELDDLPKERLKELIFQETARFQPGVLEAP
EPHA1 (human), sequence (P21709 whole entry, looked up): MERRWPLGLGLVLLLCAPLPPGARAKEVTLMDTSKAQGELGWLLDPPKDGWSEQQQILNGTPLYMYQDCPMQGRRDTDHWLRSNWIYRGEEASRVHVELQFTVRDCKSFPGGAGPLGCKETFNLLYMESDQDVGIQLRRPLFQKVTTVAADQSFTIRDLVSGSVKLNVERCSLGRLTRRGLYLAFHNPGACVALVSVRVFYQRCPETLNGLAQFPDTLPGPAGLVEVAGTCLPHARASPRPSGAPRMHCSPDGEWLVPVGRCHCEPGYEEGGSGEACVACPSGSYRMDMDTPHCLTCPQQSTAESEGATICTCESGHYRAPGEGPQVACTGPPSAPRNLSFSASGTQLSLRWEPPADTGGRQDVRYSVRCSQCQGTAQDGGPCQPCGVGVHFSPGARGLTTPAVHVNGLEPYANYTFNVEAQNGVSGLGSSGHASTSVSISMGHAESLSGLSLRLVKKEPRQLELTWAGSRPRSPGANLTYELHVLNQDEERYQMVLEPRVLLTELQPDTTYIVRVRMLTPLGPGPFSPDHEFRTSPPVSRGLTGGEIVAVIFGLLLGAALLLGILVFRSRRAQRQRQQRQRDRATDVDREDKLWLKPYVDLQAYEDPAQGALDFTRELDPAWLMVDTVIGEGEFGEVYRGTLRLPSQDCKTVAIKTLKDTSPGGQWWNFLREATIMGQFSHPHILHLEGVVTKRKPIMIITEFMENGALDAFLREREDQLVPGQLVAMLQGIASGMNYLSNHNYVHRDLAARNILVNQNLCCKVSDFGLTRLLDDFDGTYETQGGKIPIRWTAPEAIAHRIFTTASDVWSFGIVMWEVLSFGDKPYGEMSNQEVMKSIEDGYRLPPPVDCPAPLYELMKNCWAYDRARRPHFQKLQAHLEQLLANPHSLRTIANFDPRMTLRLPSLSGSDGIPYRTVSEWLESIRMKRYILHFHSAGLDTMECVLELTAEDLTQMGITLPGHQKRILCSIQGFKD
PIK3CA (human), P42336 [C420R], sequence (P42336 whole entry C420R, looked up): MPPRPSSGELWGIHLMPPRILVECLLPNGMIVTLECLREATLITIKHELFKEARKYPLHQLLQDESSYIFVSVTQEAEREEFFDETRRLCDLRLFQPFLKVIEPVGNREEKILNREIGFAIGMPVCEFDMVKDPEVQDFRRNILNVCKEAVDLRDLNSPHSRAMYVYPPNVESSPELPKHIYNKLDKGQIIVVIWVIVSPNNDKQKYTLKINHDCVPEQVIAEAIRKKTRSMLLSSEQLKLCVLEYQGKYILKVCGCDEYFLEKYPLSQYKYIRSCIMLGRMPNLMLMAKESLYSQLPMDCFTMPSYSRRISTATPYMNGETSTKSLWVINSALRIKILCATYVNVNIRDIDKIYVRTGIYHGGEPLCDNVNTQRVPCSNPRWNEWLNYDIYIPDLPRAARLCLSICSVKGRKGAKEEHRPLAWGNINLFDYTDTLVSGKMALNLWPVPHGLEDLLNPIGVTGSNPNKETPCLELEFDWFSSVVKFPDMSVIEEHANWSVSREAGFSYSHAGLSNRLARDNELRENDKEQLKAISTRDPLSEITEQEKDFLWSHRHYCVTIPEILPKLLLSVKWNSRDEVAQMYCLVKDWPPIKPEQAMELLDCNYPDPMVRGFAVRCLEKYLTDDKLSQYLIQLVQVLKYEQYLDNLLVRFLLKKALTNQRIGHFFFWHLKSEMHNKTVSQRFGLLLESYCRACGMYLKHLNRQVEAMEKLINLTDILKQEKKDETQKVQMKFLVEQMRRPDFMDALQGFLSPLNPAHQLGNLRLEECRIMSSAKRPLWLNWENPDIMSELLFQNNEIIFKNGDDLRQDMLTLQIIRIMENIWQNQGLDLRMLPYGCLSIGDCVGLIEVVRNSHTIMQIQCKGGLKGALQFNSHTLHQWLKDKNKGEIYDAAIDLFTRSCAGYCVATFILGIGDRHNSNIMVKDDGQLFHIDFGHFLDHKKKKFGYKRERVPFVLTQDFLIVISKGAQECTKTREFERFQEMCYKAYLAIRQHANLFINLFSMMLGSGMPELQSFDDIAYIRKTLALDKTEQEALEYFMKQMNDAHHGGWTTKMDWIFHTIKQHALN
KIT (human), P10721 [V559D/T670I], sequence (P10721 whole entry V559D/T670I, looked up): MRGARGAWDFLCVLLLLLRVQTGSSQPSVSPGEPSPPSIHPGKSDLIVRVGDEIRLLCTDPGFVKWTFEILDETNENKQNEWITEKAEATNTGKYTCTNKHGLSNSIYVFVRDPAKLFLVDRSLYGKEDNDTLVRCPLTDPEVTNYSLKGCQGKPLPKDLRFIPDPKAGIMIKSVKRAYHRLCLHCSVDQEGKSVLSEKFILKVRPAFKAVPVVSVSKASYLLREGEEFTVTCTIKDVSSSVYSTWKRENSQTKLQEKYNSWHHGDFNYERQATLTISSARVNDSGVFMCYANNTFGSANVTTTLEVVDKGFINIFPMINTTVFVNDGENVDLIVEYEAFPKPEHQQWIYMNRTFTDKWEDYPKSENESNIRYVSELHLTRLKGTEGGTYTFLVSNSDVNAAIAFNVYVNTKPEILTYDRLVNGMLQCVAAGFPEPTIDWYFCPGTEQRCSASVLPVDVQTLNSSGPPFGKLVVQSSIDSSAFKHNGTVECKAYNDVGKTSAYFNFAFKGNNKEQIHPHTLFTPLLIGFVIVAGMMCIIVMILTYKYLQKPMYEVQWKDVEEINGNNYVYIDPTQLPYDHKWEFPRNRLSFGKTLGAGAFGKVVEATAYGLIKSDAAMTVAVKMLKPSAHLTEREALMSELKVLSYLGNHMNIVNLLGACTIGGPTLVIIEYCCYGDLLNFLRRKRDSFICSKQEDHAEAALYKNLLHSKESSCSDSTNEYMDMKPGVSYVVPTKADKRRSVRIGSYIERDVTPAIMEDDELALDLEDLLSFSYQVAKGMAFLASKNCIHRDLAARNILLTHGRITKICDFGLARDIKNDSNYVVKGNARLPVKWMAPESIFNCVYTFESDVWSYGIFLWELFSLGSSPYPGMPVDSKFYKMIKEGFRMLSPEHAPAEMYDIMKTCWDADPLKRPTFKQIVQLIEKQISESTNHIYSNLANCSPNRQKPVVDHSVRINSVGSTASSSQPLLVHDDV
KIT (human), P10721 [L576P], sequence (P10721 whole entry L576P, looked up): as the sequence (P10721 whole entry V559D/T670I, looked up) above, with D559V, L576P, I670T counted along it
PIK3CA (human), P42336 [E545K], sequence (P42336 whole entry E545K, looked up): as the sequence (P42336 whole entry C420R, looked up) above, with R420C, E545K counted along it

kinase still bound, per cent of control (MAP4K2 (human)): 82%
kinase still bound, per cent of control (MAPK12 (human)): 100%
kinase still bound, per cent of control (PIP4K2B (human)): 98%
kinase still bound, per cent of control (IKBKE (human)): 98%
kinase still bound, per cent of control (EPHA1 (human)): 100%
kinase still bound, per cent of control (TSSK1B (human)): 94%
kinase still bound, per cent of control [1]: 100%
kinase still bound, per cent of control (HIPK3 (human)): 100%
kinase still bound, per cent of control (PIM2 (human)): 89%
kinase still bound, per cent of control (PIK3CB (human)): 100%
kinase still bound, per cent of control [2]: 100%
kinase still bound, per cent of control (SBK1 (human)): 100%
kinase still bound, per cent of control (DCLK2 (human)): 100%
kinase still bound, per cent of control (MAP3K12 (human)): 100%
kinase still bound, per cent of control (LYN (human)): 100%
kinase still bound, per cent of control (STK39 (human)): 67%
kinase still bound, per cent of control (CAMK4 (human)): 100%
kinase still bound, per cent of control (PAK1 (human)): 100%
kinase still bound, per cent of control (DYRK2 (human)): 68%
kinase still bound, per cent of control (PRKCQ (human)): 100%
kinase still bound, per cent of control (TNNI3K (human)): 100%
kinase still bound, per cent of control [3]: 92%
kinase still bound, per cent of control (CSNK1G3 (human)): 56%
kinase still bound, per cent of control (MAPK7 (human)): 100%
kinase still bound, per cent of control (BMPR1B (human)): 92%
kinase still bound, per cent of control (FGFR4 (human)): 100%
kinase still bound, per cent of control (AURKC (human)): 92%
kinase still bound, per cent of control (RIOK3 (human)): 100%
kinase still bound, per cent of control [4]: 49%
kinase still bound, per cent of control [5]: 74%
kinase still bound, per cent of control (STK25 (human)): 90%
kinase still bound, per cent of control (CLK1 (human)): 49%
kinase still bound, per cent of control (BRSK1 (human)): 100%
kinase still bound, per cent of control (PDGFRA (human)): 100%
kinase still bound, per cent of control (SIK2 (human)): 100%
kinase still bound, per cent of control (EPHA4 (human)): 100%
kinase still bound, per cent of control (CIT (human)): 100%
kinase still bound, per cent of control (PRKD3 (human)): 88%
kinase still bound, per cent of control [6]: 91%
kinase still bound, per cent of control (MAPK3 (human)): 100%
kinase still bound, per cent of control (TESK1 (human)): 100%
kinase still bound, per cent of control (SRC (human)): 100%
SMILES: Cc1cnc(-c2cnc(NCCNc3ccc(C#N)cn3)nc2-c2ccc(Cl)cc2Cl)[nH]1

kinase still bound, per cent of control (MAP4K2 (human)): 8.5%
kinase still bound, per cent of control (MAPK12 (human)): 55%
kinase still bound, per cent of control (PIP4K2B (human)): 1.5%
kinase still bound, per cent of control (IKBKE (human)): 29%
kinase still bound, per cent of control (EPHA1 (human)): 85%
kinase still bound, per cent of control (TSSK1B (human)): 100%
kinase still bound, per cent of control [1]: 100%
kinase still bound, per cent of control (HIPK3 (human)): 12%
kinase still bound, per cent of control (PIM2 (human)): 52%
kinase still bound, per cent of control (PIK3CB (human)): 88%
kinase still bound, per cent of control [2]: 100%
kinase still bound, per cent of control (SBK1 (human)): 61%
kinase still bound, per cent of control (DCLK2 (human)): 100%
kinase still bound, per cent of control (MAP3K12 (human)): 19%
kinase still bound, per cent of control (LYN (human)): 6.2%
kinase still bound, per cent of control (STK39 (human)): 37%
kinase still bound, per cent of control (CAMK4 (human)): 100%
kinase still bound, per cent of control (PAK1 (human)): 68%
kinase still bound, per cent of control (PRKCQ (human)): 55%
kinase still bound, per cent of control (TNNI3K (human)): 68%
kinase still bound, per cent of control [3]: 0%
kinase still bound, per cent of control (CSNK1G3 (human)): 81%
kinase still bound, per cent of control (MAPK7 (human)): 100%
kinase still bound, per cent of control (BMPR1B (human)): 50%
kinase still bound, per cent of control (FGFR4 (human)): 21%
kinase still bound, per cent of control (AURKC (human)): 0.75%
kinase still bound, per cent of control (RIOK3 (human)): 8.4%
kinase still bound, per cent of control [4]: 84%
kinase still bound, per cent of control [5]: 0.15%
kinase still bound, per cent of control (STK25 (human)): 18%
kinase still bound, per cent of control (CLK1 (human)): 34%
kinase still bound, per cent of control (BRSK1 (human)): 1.8%
kinase still bound, per cent of control (PDGFRA (human)): 0%
kinase still bound, per cent of control (SIK2 (human)): 8.2%
kinase still bound, per cent of control (EPHA4 (human)): 55%
kinase still bound, per cent of control (CIT (human)): 29%
kinase still bound, per cent of control (PRKD3 (human)): 70%
kinase still bound, per cent of control [6]: 0%
kinase still bound, per cent of control (MAPK3 (human)): 100%
kinase still bound, per cent of control (TESK1 (human)): 67%
kinase still bound, per cent of control (SRC (human)): 0.15%
SMILES: O=C1Nc2cc(Br)ccc2/C1=C1/Nc2ccccc2/C1=N\O

kinase still bound, per cent of control (MAP4K2 (human)): 100%
kinase still bound, per cent of control (PIP4K2B (human)): 69%
kinase still bound, per cent of control (IKBKE (human)): 88%
kinase still bound, per cent of control (EPHA1 (human)): 100%
kinase still bound, per cent of control (TSSK1B (human)): 91%
kinase still bound, per cent of control [1]: 95%
kinase still bound, per cent of control (HIPK3 (human)): 100%
kinase still bound, per cent of control (PIM2 (human)): 76%
kinase still bound, per cent of control (PIK3CB (human)): 100%
kinase still bound, per cent of control [2]: 100%
kinase still bound, per cent of control (SBK1 (human)): 100%
kinase still bound, per cent of control (DCLK2 (human)): 100%
kinase still bound, per cent of control (MAP3K12 (human)): 80%
kinase still bound, per cent of control (LYN (human)): 74%
kinase still bound, per cent of control (STK39 (human)): 100%
kinase still bound, per cent of control (PAK1 (human)): 94%
kinase still bound, per cent of control (DYRK2 (human)): 68%
kinase still bound, per cent of control (PRKCQ (human)): 100%
kinase still bound, per cent of control (TNNI3K (human)): 100%
kinase still bound, per cent of control [3]: 97%
kinase still bound, per cent of control (CSNK1G3 (human)): 59%
kinase still bound, per cent of control (MAPK7 (human)): 97%
kinase still bound, per cent of control (BMPR1B (human)): 89%
kinase still bound, per cent of control (FGFR4 (human)): 100%
kinase still bound, per cent of control (AURKC (human)): 92%
kinase still bound, per cent of control (RIOK3 (human)): 86%
kinase still bound, per cent of control [4]: 49%
kinase still bound, per cent of control (STK25 (human)): 100%
kinase still bound, per cent of control (CLK1 (human)): 62%
kinase still bound, per cent of control (BRSK1 (human)): 100%
kinase still bound, per cent of control (PDGFRA (human)): 100%
kinase still bound, per cent of control (SIK2 (human)): 80%
kinase still bound, per cent of control (EPHA4 (human)): 100%
kinase still bound, per cent of control (CIT (human)): 89%
kinase still bound, per cent of control (PRKD3 (human)): 100%
kinase still bound, per cent of control [6]: 86%
kinase still bound, per cent of control (MAPK3 (human)): 100%
kinase still bound, per cent of control (TESK1 (human)): 100%
kinase still bound, per cent of control (SRC (human)): 78%
SMILES: COc1ccc(CNC(=O)Nc2ncc([N+](=O)[O-])s2)cc1
